Data as given in patent publication US8173689B2 (Novartis AG, priority 2006, dated 2012).
Where two headings read alike, the source gives them in different places.

Tests used:
[1] = molecular target: T1, cytoplasmic domain of the human CSF-1R (Homo sapiens, UniProt P07333); assay: In vitro kinase assay for colony stimulating factor-1 receptor (AlphaScreen); type: biochemical; settings: tested at about 1 μM, read-out: CSF-1R percent inhibition
T1 construct: Recombinant protein corresponding to the cytoplasmic domain of the human CSF-1R; purchased Invitrogen Corporation, Carlsbad, Calif; PV3249
T1 sequence (P07333 539-972 limits assumed): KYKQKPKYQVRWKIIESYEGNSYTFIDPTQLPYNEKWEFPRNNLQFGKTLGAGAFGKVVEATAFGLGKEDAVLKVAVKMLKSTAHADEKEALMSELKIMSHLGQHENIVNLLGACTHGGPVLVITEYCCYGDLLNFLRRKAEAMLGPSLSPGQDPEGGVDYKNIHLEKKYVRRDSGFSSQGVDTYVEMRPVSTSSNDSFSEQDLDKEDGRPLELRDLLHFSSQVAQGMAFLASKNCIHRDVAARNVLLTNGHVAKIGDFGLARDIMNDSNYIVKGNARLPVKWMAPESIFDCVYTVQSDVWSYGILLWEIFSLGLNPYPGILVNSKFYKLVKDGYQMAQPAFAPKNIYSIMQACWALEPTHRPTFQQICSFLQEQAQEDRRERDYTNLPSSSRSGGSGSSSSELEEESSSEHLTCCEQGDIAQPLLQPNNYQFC
Procedure, shortened: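 Kinase reaction used 4 nM recombinant cytoplasmic domain at 1 μM ATP in 50 mM Hepes pH 7.5 with 5 mM MgCl2, 10 mM MnCl2, 0.1% BSA, 1.0 mM DTT and 0.01% Tween 80. Compounds were serially diluted 3-fold from 25 μM. Phosphopeptide was detected by AlphaScreen, PT66 anti-phosphotyrosine acceptor plus streptavidin donor beads, read after overnight incubation.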

[2] = molecular target: T2, full-length human CSF-1R receptor (Homo sapiens, UniProt P07333); assay: In vitro inhibition of CSF-1R receptor tyrosine phosphorylation in transfected HEK293H cells stimulated with MCSF; type: cell-based; settings: HEK293-H, tested at about 1 μM, read-out: pCSF1R percent inhibition
T2 construct: transfected with the full-length human CSF-1R receptor cloned in house; expressed in transfected cells; host or cells: HEK293H (Invitrogen Cat. #11631017)
Experimental: The lysate was then transferred to total CSF-1R antibody coated 96-well plates that had already been blocked with 3% Blocker A from Mesoscale discovery (MSD) for 2 hours and washed afterwards. Lysates were incubated overnight at 4° C. and the plates were then washed 4× with MSD Tris Wash Buffer. […] The plates were read on the Sector 6000 instrument (MSD). Raw data was imported in Abase and EC50s calculated with XL-fit data analysis software.

kinase domain of cKIT = molecular target: T3, kinase domain of cKIT (Homo sapiens, UniProt P10721); assay: Inhibition of cKIT kinase signaling in an in vitro biochemical assay (alphascreen); settings: tested at about 1 μM; for inhibition at 1 µM: read-out: cKit percent inhibition
T3 construct: The kinase domain of cKIT was assayed in 50 mM Hepes; purchased Upstate 14-559

kinase domain of PDGFRβ = molecular target: T4, kinase domain of PDGFRβ (Homo sapiens, UniProt P09619); assay: Inhibition of PDGFRb kinase signaling in an in vitro biochemical assay (alphascreen); settings: tested at about 1 μM; for inhibition at 1 µM: read-out: PDGFRβ percent inhibition
T4 construct: The kinase domain of PDGFRβ was assayed in 50 mM Hepes; purchased Invitrogen P3082

[3] = system: MNFS60 (murine AML cells); assay: Cell viability assay in MCSF dependent MNFS60 cells (Cell Titer Glo); type: cell-based; settings: Mus musculus, tested at about 1 μM, read-out: M-NFS-60 CP percent inhibition
Procedure, shortened: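 Cells are cultured with 10 ng/ml MCSF and test compound for 72 hrs at 37° C. in 5% CO2. CellTiter-Glo reagent is then added to gauge viable cell number, and EC50s are fitted from triplicates.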

T2 sequence (P07333 20-972): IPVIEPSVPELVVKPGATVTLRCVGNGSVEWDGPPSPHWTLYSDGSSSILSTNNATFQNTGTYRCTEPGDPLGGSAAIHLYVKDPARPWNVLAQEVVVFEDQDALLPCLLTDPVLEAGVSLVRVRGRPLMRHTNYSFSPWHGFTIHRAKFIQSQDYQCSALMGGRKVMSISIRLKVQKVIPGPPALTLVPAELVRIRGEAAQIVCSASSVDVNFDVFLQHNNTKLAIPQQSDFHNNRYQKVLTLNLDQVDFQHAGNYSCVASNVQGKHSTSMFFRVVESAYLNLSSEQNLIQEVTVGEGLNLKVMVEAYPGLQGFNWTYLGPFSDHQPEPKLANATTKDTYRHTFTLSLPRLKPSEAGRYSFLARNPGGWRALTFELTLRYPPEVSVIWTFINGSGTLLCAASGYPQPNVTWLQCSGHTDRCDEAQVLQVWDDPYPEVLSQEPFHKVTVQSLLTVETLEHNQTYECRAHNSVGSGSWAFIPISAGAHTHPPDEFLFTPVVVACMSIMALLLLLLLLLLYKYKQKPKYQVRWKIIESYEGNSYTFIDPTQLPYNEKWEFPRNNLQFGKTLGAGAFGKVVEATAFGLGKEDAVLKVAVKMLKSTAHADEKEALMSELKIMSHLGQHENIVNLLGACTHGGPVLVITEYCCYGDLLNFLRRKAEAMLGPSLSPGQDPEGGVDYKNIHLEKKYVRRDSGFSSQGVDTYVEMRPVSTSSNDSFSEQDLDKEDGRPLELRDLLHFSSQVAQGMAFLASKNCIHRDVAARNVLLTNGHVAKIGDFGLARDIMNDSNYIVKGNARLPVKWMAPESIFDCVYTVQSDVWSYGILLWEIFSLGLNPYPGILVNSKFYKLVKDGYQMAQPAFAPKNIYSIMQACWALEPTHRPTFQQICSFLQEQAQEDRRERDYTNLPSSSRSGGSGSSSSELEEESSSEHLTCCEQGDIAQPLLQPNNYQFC
T4 sequence (P09619 600-962 limits assumed): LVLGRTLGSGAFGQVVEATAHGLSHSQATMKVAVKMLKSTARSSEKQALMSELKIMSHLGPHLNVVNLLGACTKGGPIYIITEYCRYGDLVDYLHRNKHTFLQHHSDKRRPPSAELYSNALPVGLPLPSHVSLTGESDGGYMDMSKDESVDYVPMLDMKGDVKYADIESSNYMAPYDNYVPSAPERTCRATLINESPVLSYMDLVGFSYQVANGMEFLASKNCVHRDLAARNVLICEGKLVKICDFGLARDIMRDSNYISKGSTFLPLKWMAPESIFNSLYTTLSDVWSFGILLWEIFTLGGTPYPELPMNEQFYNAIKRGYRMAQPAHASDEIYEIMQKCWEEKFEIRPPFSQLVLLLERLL
T3 sequence (P10721 589-937 limits assumed): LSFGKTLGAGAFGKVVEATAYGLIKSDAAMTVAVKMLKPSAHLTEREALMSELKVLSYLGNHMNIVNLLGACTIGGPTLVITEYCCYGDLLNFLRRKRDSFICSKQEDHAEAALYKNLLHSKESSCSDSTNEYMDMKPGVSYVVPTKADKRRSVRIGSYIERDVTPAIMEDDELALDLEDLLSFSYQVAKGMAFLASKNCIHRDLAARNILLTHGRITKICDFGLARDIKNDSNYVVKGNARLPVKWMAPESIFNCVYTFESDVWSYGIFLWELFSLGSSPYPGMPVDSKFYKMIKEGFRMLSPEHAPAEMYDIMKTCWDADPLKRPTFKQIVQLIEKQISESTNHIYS

inhibition at 1 µM [1] [%] | inhibition at 1 µM ([2]; HEK293H cells) [%] | inhibition at 1 µM (kinase domain of cKIT) [%] | inhibition at 1 µM (kinase domain of PDGFRβ) [%] | Compound | inhibition at 1 µM ([3]; MNFS60 cells) [%] | other results
 |  |  |  | COCCn1cc(-c2cc(Oc3ccc4nc(N[C@@H]5CCCC[C@H]5O)sc4c3)ccn2)cn1 [Example 260, (1R,2R)-2-(6-(2-(1-(2-methoxyethyl)-1H-pyrazol-4-yl)pyridin-4-yloxy)benzo[d]thiazol-2-ylamino)cyclohexanol] |  | inhibition at 1 µM ([1]; compounds of Table 3): 100%; inhibition at 1 µM ([2]; compounds of Table 3): 98%; inhibition at 1 µM (kinase domain of cKIT; compounds of Table 3): 25%; inhibition at 1 µM (kinase domain of PDGFRβ; compounds of Table 3): 0%; inhibition at 1 µM ([3]; compounds of Table 3): 100%
 |  |  |  | COCCn1cc(-c2cc(Oc3ccc4nc(N[C@@H]5c6ccccc6C[C@@H]5O)sc4c3)ccn2)cn1 [Compound 58] |  | inhibition at 1 µM ([1]; compounds of Table 4): 100%; inhibition at 1 µM ([2]; compounds of Table 4): 95%; inhibition at 1 µM (kinase domain of cKIT; compounds of Table 4): 11%; inhibition at 1 µM (kinase domain of PDGFRβ; compounds of Table 4): 0%; inhibition at 1 µM ([3]; compounds of Table 4): 100%
 |  |  |  | COc1ccc(-c2cc(Oc3ccc4nc(N[C@@H](C)C5CCCCC5)sc4c3)ccn2)cn1 [Example 279, (S)-N-(1-cyclohexylethyl)-6-(6'-methoxy-2,3'-bipyridin-4-yloxy)benzo[d]thiazol-2-amine] |  | inhibition at 1 µM ([1]; compounds of Table 3): 100%; inhibition at 1 µM ([2]; compounds of Table 3): 59%; inhibition at 1 µM (kinase domain of cKIT; compounds of Table 3): 30%; inhibition at 1 µM (kinase domain of PDGFRβ; compounds of Table 3): 7%; inhibition at 1 µM ([3]; compounds of Table 3): 60%
100 | 79 | 41 | 10 | CNC(=O)c1cc(Oc2ccc3nc(N[C@H]4CCCN(S(C)(=O)=O)C4)sc3c2)ccn1 [Example 331, (S)-N-methyl-4-(2-(1-(methylsulfonyl)piperidin-3-ylamino)benzo[d]thiazol-6-yloxy)picolinamide] |  | inhibition at 1 µM ([3]; MCSF dependent MNFS60 cells): 68%
99 | 98 | 100 | 40 | CNC(=O)c1cc(Oc2ccc3nc(NCc4cccc5c4OCCCO5)oc3c2)ccn1 [Compound 108, 4-{2-[(3,4-Dihydro-2H-benzo[b][1,4]dioxepin-6-ylmethyl)-amino]-benzooxazol-6-yloxy}-pyridine-2-carboxylic acid methylamide] | 100 | 
99 | 92 | 92 | 34 | CNC(=O)c1cc(Oc2ccc3nc(N[C@H](C)c4ccccc4OC)sc3c2)ccn1 [Compound 129, 4-{2-[(R)-1-(2-Methoxy-phenyl)-ethylamino]-benzothiazol-6-yloxy}-pyridine-2-carboxylic acid methylamide] | 94 | 
100 | 91 | 68 | 20 | CNC(=O)c1cc(Oc2ccc3nc(NC4CCCCC4)sc3c2)ccn1 [Compound 135, 4-(2-Cyclohexylamino-benzothiazol-6-yloxy)-pyridine-2-carboxylic acid methylamide] | 96 | 
 |  |  |  | C[C@H](Nc1nc2ccc(Oc3ccnc4ccccc34)cc2s1)C1CCCCC1 [Example 241, (S)-N-(1-cyclohexylethyl)-6-(quinolin-4-yloxy)benzo[d]thiazol-2-amine] |  | inhibition at 1 µM ([1]; compounds of Table 3): 100%; inhibition at 1 µM ([2]; compounds of Table 3): 65%; inhibition at 1 µM (kinase domain of cKIT; compounds of Table 3): 25%; inhibition at 1 µM (kinase domain of PDGFRβ; compounds of Table 3): 23%; inhibition at 1 µM ([3]; compounds of Table 3): 51%
100 | 99 |  |  | CNC(=O)c1cc(Oc2ccc3nc(N[C@@H]4CCCC[C@H]4O)sc3c2)ccn1 [Compound 157, 4-[2-((1R,2R)-2-Hydroxy-cyclohexylamino)-benzothiazol-6-yloxy]-pyridine-2-carboxylic acid methylamide] | 100 | cKit percent inhibition (kinase domain of cKIT): 20%; PDGFRβ percent inhibition (kinase domain of PDGFRβ): 20%
100 | 90 | 53 | 75 | Cc1cnc(-c2cc(Oc3ccc4nc(NCC5CCCCC5)oc4c3)ccn2)[nH]1 [Compound 109, Cyclohexylmethyl-{6-[2-(5-methyl-1H-imidazol-2-yl)-pyridin-4-yloxy]-benzooxazol-2-yl}-amine] | 81 | 
 |  |  |  | C[C@H](Nc1nc2ccc(Oc3ccnc(-c4nc5c([nH]4)CCCC5)c3)cc2s1)C1CCCCC1 [Example 271, (S)-N-(1-cyclohexylethyl)-6-(2-(4,5,6,7-tetrahydro-1H-benzo[d]imidazol-2-yl)pyridin-4-yloxy)benzo[d]thiazol-2-amine] |  | inhibition at 1 µM ([1]; compounds of Table 3): 98%; inhibition at 1 µM ([2]; compounds of Table 3): 55%; inhibition at 1 µM (kinase domain of cKIT; compounds of Table 3): 46%; inhibition at 1 µM (kinase domain of PDGFRβ; compounds of Table 3): 24%; inhibition at 1 µM ([3]; compounds of Table 3): 54%
99 | 88 | 93 | 93 | CNC(=O)c1cc(Oc2ccc3nc(N[C@H](C)C4CCCCC4)sc3c2)ccn1 [Compound 138, 4-[2-((R)-1-Cyclohexyl-ethylamino)-benzothiazol-6-yloxy]-pyridine-2-carboxylic acid methylamide] | 100 | 
100 | 96 | 99 | 88 | c1cc(Oc2ccc3nc(NCC4CCCCC4)sc3c2)cc(-c2cn[nH]c2)n1 [Example 341, 6-(2-(1H-pyrazol-4-yl)pyridin-4-yloxy)-N-(cyclohexylmethyl)benzo[d] thiazol-2-amine] |  | inhibition at 1 µM ([3]; MCSF dependent MNFS60 cells): 99%
99 | 93 | 17 | 18 | CNC(=O)c1cc(Oc2ccc3nc(NCc4cccnc4)sc3c2)ccn1 [Compound 154, 4-{2-[(Pyridin-3-ylmethyl)-amino]-benzothiazol-6-yloxy}-pyridine-2-carboxylic acid methylamide] | 48 | 
100 | 87 | 62 | 43 | CNC(=O)c1cc(Oc2ccc3nc(N[C@@H]4CCCC[C@H]4O)sc3c2Cl)ccn1 [Example 378, 4-(7-chloro-2-((1R,2R)-2-hydroxycyclohexylamino)benzo[d]thiazol-6-yloxy)-N-methylpicolinamide] |  | inhibition at 1 µM ([3]; MCSF dependent MNFS60 cells): 90%
99 | 87 | 34 | 1 | CNC(=O)c1cc(Oc2ccc3nc(NCc4ccccn4)sc3c2)ccn1 [Compound 150, 4-{2-[(Pyridin-2-ylmethyl)-amino]-benzothiazol-6-yloxy}-pyridine-2-carboxylic acid methylamide] | 49 | 
 |  |  |  | C[C@H](Nc1nc2ccc(Oc3ccnc(-c4cccnc4)c3)cc2s1)C1CCCCC1 [Example 274, (S)-6-(2,3'-bipyridin-4-yloxy)-N-(1-cyclohexylethyl)benzo[d] thiazol-2-amine] |  | inhibition at 1 µM ([1]; compounds of Table 3): 100%; inhibition at 1 µM ([2]; compounds of Table 3): 82%; inhibition at 1 µM (kinase domain of cKIT; compounds of Table 3): 28%; inhibition at 1 µM (kinase domain of PDGFRβ; compounds of Table 3): 12%; inhibition at 1 µM ([3]; compounds of Table 3): 76%
99 | 63 | 18 | 10 | CNC(=O)c1cc(Oc2ccc3nc(NC4CCCc5ccccc54)oc3c2)ccn1 (stereo not drawn) [Compound 104, 4-[2-(1,2,3,4-Tetrahydro-naphthalen-1-ylamino)-benzooxazol-6-yloxy]-pyridine-2-carboxylic acid methylamide] | 47 | 
